Results taken from article PMC12670765, “Employment of chia gum and tannic acid as natural products in immobilization of horseradish peroxidase for the removal of azo dye” (BMC Biotechnology, 2025).

System: T1, Horseradish peroxidase (HRP), soluble HRP
T1 construct: gene PRXC1A; free soluble form
Assay: Lineweaver-Burk; absorbance at […] nm
Assay type: biochemical, Armoracia rusticana
Details: soluble enzyme; co-substrate H2O2 (standard assay 8 mM); standard assay 20 mM sodium acetate pH 5.5

Km: 6.9 mM
SMILES: COc1ccccc1O [guaiacol]
